Experimental findings from patent US20220370493A1, “METHODS AND COMPOSITIONS FOR GENERATING NITRIC OXIDE AND USES THEREOF” (THIRTY HOLDINGS LIMITED, priority 2019, published 2022) are described below.

In series [1] the test system is SARS-CoV-2 clinical isolate. As to the kind of experiment: SARS-CoV-2 virus yield reduction assay in Vero E6 cells. The format is cell-based. As to the method: SARS-CoV-2 clinical isolate.
At time 0 hr, Vero E6 cells were infected with virus in presence of the formulation or controls and incubated for 1 hour. After this incubation period the inoculum was removed and the cells were washed. Fresh formulation or controls were then added to the washed cells. At 24 hours post infection, Vero E6 cell supernatants were harvested and titrated, and the virus titration was incubated for 6 days prior to readout to determine any virus yield reduction. Separate tests were performed at four MOIs including 3.0 and 0.3, although only those two MOIs were titrated. The readout was by crystal violet (cell monolayer) staining, followed by CPE scoring.

SMILES strings stand for the structures.

Regarding `CCN(CC)CCCC(C)Nc1ccnc2cc(Cl)ccc12` (stereo not shown) [chloroquine, Chloroquine phosphate], the SARS-CoV-2 titre result in series [1] (FIG. 33, Run 1, MOI 3.0, 24 hours) was “limit of detection”; in series [1] (FIG. 34, Run 2, MOI 3.0 and MOI 0.3, 48 hours), “limit of detection”.
For the molecule `O=C(O)CC(O)(CC(=O)O)C(=O)O` [citric acid pH 5.8, citric acid], in series [1] (FIGS. 33 and 34, MOI 3.0 and 0.3), the “in vitro antiviral action against SARS-CoV-2” value is given as “high in vitro antiviral action”. Also, the “cytotoxicity on the LDH assay” value in the series with Vero E6 cells is recorded as “low cytotoxicity”.
